This note sets out measurements from US12435091B2, “RNA-binding protein multimerization inhibitors and methods of use thereof” (THE UAB RESEARCH FOUNDATION, priority 2020, dated 2025).

Each structure is given as a SMILES string. ≈ marks a conversion by molar mass, not a printed value.

In data set [1] the target is IRAK1 (Homo sapiens, UniProt P51617). Description: SelectScreen kinase profiling, Adapta. In kind it is biochemical. The method, then:
(§1) The kinase inhibitory potentials of compounds as described herein (e.g., SRI-42127 and SRI-41664) were evaluated by ThermoFisher Scientific's SelectScreen™ Kinase Profiling Service. The following kinase inhibitory assays were utilized: ZLYTE (Madison, WI) for NTRK1, PIM1, and cMET kinases; LanthaScreen Binding (Madison, WI) for AAK1 kinase; and Adapta (Madison, WI) for IRAK1 kinase.

Data set [2] has as its system U251 and XD456 glioma cell lines. Nature of the data set: western blotting of glioma cell fractions (Bcl2, Mcl1, SOX2, cleaved PARP, cleaved caspase 3). The class given is cell-based. Particulars: U251 and XD456, 10 uM for 48 hours. As for the experimental part:
Western blotting was performed. Nuclear and cytoplasmic protein fractionations were performed using NE-PER Nuclear and Cytoplasmic extraction reagents (ThermoFisher Scientific). Anti-lamin A/C and anti-Tubulin alpha antibodies were utilized to verify nuclear and cytoplasmic fractions, respectively. Antibodies against lamin A/C, cleaved PARP, cleaved caspase 3, SOX2, and Mcl1 were purchased from Cell Signaling Technology (Danvers, MA). Anti-Tubulin alpha antibody was purchased from Sigma-Aldrich. Antibodies against HuR, actin, and Bcl2 were purchased from Santa Cruz Biotechnology (Santa Cruz, CA). Polyclonal anti-HuR antibody for HuR/mRNA co-immunoprecipitation was purchased from MBL International (Woburn, MA).
In FIG. 8B, representative western blots confirm reduction of Bcl2 and Mcl1 proteins in cytoplasmic fractions of U251 and XD456 cell lines following treatment with compounds as described herein, 10 uM for 48 hours. SOX2 reduction in nuclear fractions indicates decrease of tumorigenicity of cell lines after treatment with compounds as described herein. Actin and Lamin A/C were utilized for data normalization in cytoplasmic and nuclear fractions, respectively.
In FIG. 8C, representative western blots illustrate appearances of cleaved PARP and cleaved caspase 3 in glioma cell lines after treatment with compounds as described herein, 10 uM for 48 hours. […]
On the technique in general: In western blotting, separated proteins are transferred to a membrane and probed.

The target of data set [3] is AAK1 (Homo sapiens, UniProt Q2M2I8). Nature of the data set: SelectScreen kinase profiling, LanthaScreen Binding. As for the experimental part:
as §1

Data set [4] deals with U251 glioma cell line. Description: PrestoBlue cell viability assay. In kind it is cell-based. Particulars: Homo sapiens, U-251, 48 h, U251, 48 hours of treatment; read-out: IC50 cell viability. As for the experimental part: (§2) PrestoBlue cell viability reagent (ThermoFisher Scientific; Waltham, MA) was used for cell viability assays. The inhibitory dose-response data were normalized to the control (treatment with vehicle); the inhibitory dose-response curves, which were fitted by using Boltzmann equation, and the corresponding IC50s were generated by using OriginPro software (OriginLab Corporation, CA).
(§3) The glioma suppressive potentials of the new class of HuR multimerization inhibitors were evaluated by utilizing SRI-41664 and SRI-42127 compounds in several cell-based assays. First, it was confirmed that the SRI-41664 and SRI-42127 compounds are cytotoxic for established and PDGx cell lines. FIG. 5A illustrates the inhibitory dose responses of SRI-41664 and SRI-42127 compounds in the established U251, LN229, and the PDGx XD456 glioma cell lines. […] An HuR-overexpression approach was employed to confirm SRI-42127 inhibitory potency against HuR dimerization.

In data set [5] the test system is LN229 glioma cell line. Description: PrestoBlue cell viability assay. The class given is cell-based. Conditions: Homo sapiens, LN-229; LN229, 48 hours of treatment. The method, then:
as §2, §3

For data set [6], the system named is PDGx XD456 glioma cell line. Nature of the data set: PrestoBlue cell viability assay. In kind it is cell-based. Conditions: Glioma cell; XD456, 48 hours of treatment. As for the experimental part:
as §2, §3

Data set [7] addresses PIM1 (Homo sapiens, UniProt P11309). Nature of the data set: SelectScreen kinase profiling, ZLYTE. The class given is biochemical. The method, then: as §1
Data set [8] deals with TRKA (NTRK1) (Homo sapiens, UniProt P04629). Nature of the data set: SelectScreen kinase profiling, ZLYTE. The class given is biochemical. The method, then: as §1
Chain of TRKA (NTRK1) (P04629 33-796): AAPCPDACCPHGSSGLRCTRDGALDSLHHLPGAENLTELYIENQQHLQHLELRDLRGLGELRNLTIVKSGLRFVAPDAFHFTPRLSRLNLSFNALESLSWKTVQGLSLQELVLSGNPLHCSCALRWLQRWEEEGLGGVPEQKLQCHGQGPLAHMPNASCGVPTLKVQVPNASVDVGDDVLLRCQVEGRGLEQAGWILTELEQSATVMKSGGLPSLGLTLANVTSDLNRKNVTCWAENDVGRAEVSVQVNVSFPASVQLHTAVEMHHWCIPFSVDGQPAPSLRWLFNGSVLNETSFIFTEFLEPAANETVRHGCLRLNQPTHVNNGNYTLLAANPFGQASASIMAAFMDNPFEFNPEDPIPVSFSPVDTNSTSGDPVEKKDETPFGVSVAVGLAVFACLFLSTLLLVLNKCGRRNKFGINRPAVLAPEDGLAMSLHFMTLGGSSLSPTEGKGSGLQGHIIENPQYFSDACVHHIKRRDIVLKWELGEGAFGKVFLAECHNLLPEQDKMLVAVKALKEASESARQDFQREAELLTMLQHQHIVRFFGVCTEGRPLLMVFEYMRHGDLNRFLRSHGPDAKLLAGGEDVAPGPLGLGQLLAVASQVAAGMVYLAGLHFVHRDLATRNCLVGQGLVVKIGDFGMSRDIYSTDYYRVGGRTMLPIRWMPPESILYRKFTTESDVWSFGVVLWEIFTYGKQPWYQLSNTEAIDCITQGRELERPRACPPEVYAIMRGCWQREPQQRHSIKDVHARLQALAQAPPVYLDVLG
For data set [9], the target named is cMET (Homo sapiens, UniProt P08581). Description: SelectScreen kinase profiling, ZLYTE. In kind it is biochemical. The method, then: as §1
Chain of cMET (P08581 25-1390): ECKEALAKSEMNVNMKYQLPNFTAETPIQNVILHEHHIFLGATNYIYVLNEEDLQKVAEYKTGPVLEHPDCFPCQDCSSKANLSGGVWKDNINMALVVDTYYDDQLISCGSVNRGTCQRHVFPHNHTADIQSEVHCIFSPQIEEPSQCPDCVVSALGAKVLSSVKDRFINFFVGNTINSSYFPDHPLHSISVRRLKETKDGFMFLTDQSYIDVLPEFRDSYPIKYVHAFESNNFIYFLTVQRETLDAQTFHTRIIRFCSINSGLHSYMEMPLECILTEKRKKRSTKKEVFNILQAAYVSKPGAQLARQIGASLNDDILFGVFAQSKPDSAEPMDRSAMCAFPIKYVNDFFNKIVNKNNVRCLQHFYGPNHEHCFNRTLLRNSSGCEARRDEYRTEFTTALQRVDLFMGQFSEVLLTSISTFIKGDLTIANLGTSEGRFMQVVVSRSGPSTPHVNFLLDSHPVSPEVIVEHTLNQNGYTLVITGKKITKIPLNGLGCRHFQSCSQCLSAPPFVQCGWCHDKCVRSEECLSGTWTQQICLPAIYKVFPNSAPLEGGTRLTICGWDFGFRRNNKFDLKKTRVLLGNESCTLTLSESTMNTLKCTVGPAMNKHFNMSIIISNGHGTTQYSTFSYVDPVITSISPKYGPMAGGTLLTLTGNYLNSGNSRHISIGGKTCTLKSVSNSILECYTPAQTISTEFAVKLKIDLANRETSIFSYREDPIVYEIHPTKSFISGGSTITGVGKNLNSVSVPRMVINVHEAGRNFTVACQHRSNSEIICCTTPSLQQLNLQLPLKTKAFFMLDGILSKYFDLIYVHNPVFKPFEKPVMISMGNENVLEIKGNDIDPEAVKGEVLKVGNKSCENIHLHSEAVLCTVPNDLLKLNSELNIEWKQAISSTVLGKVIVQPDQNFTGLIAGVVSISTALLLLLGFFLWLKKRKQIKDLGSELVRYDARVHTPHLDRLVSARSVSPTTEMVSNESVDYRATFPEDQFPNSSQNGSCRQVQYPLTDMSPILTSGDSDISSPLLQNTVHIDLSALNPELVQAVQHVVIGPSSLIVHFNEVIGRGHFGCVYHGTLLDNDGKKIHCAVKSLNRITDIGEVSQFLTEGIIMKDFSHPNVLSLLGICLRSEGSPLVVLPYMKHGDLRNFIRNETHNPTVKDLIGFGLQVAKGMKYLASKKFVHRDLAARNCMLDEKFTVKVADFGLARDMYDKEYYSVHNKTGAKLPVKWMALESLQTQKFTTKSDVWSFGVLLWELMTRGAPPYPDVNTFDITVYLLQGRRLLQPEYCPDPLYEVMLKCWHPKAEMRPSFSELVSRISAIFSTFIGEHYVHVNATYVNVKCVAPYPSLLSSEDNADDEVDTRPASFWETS
Data set [10] has as its system U251 cells expressing Fluc construct. Nature of the data set: control Fluc (full length luciferase) reporter assay in U251 cells. The class given is cell-based. Particulars: Homo sapiens, U-251, 6 h; Concn 50 uM; read-out: Fluc Imax % Inh. As for the experimental part:
The oncogenic activity of HuR is driven by subcellular localization into the cytoplasm and formation of multimers of HuR. To develop cell based assays to characterize the ability of small molecules to disrupt this process, a split luciferase assay detecting the formation of HuR dimers was developed. The assays were performed in 96 well plates with clear bottom (Corning Inc., Corning, NY). Cells with designed constructs (30,000-50,000 in number) were plated per well; the constructs were induced by doxycycline (0.75 ug/ml) for 48 hours. The evaluated compounds at different concentrations and the corresponding vehicle as the control were administered for 6 hours. The luminescence signals were detected by using InfinitiM200 plate reader (TECAN, Morrisville, NC) in the presence of the luciferase substrate luciferin (D-Luciferin, potassium salt), which was purchased from GoldBio (St Louis, MO). A multichannel pipette (XL 3000I™, Denville Scientific, South Plainfield, NJ) was used in all procedures to ensure the experiment quality. […]
Squares represent luminescence signal from reporter representing HuR dimers (U251 cells co-expressing HuR-Nluc and HuR-Cluc constructs); circles represent luminescence signal from control reporter (U251 cells expressing Fluc construct). Results are shown as mean+SD.

Data set [11] is described as follows: Mouse liver microsomal stability in vitro. In kind it is in vitro ADME. Conditions: liver microsomes, read-out: MLM t1/2. (Liver microsomes are vesicles of endoplasmic reticulum, rich in cytochrome P450 enzymes.)
Description: (§4) Selected compounds were assessed for their aqueous solubility, Log D and mouse and human liver microsomal stability.
The nature of data set [12]: in vitro. Particulars: human, liver microsomes.
Description: as §4
Data set [13] can be described thus: Log D at pH 7.4. In kind it is physicochemical.
Description: as §4
Data set [14] in a line: aqueous solubility at pH 7.4. In kind it is physicochemical. Conditions: aqueous medium at pH 7.4, pH 7.4, aqueous buffer; read-out: Sol @ pH 7.4.
Description: as §4
In data set [15] the target is T1, HuR (Homo sapiens, UniProt Q15717).
T1 construct: expressed in transfected cells; host or cells: U251 glioma cells, doxycycline-inducible constructs
T1 sequence (Q15717 whole entry): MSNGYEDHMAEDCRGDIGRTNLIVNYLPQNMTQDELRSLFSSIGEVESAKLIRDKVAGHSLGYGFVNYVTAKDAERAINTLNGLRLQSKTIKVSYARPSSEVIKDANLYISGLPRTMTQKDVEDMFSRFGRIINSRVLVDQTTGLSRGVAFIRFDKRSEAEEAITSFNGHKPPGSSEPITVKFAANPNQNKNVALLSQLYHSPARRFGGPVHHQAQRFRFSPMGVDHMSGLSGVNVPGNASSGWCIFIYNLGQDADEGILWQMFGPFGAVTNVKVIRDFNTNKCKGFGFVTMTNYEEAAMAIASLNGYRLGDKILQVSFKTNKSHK
Description: cell-based split firefly luciferase-HuR dimerization assay. A digest of the protocol:
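U251 cells carrying HuR fused to N- or C-terminal split firefly luciferase halves (dimer reporter) or full-length Fluc (control); constructs induced with doxycycline 0.75 ug/ml for 48 h. Compounds at various concentrations vs vehicle for 6 h. Luciferin-driven luminescence read; mean+SD.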

Chain of PIM1 (P11309 whole entry): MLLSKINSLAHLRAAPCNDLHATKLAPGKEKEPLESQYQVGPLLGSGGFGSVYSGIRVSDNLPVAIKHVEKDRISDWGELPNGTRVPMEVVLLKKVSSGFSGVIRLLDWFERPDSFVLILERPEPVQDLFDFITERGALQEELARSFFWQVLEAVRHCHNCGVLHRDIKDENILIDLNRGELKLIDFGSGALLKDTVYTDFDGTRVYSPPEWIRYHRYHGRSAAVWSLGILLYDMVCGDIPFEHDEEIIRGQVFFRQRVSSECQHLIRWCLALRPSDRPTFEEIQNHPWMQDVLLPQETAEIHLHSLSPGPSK
Chain of AAK1 (Q2M2I8 whole entry): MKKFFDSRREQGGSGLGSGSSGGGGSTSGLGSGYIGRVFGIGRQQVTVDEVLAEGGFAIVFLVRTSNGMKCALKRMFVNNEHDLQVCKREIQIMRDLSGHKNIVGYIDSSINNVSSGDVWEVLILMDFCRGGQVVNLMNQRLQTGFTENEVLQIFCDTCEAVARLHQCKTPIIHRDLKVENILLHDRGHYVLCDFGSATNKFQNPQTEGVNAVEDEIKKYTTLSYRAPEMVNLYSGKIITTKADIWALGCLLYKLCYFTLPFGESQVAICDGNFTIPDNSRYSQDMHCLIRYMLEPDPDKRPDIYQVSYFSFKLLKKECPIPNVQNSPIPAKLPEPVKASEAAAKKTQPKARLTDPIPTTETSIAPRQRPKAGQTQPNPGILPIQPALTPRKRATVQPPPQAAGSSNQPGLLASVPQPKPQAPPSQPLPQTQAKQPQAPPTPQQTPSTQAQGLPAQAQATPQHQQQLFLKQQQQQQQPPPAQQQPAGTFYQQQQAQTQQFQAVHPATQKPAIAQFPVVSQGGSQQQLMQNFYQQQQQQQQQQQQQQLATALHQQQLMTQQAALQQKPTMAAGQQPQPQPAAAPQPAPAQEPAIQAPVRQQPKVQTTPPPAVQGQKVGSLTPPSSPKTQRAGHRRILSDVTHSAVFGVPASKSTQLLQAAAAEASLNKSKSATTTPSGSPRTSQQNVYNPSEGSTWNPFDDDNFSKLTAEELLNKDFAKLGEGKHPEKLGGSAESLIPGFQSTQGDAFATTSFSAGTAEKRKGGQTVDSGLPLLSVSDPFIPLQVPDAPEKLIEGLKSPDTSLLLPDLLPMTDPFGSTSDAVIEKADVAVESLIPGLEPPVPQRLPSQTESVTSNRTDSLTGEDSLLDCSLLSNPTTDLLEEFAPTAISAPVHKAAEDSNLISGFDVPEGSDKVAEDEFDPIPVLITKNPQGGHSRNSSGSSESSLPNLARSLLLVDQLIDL
Chain of IRAK1 (P51617 whole entry): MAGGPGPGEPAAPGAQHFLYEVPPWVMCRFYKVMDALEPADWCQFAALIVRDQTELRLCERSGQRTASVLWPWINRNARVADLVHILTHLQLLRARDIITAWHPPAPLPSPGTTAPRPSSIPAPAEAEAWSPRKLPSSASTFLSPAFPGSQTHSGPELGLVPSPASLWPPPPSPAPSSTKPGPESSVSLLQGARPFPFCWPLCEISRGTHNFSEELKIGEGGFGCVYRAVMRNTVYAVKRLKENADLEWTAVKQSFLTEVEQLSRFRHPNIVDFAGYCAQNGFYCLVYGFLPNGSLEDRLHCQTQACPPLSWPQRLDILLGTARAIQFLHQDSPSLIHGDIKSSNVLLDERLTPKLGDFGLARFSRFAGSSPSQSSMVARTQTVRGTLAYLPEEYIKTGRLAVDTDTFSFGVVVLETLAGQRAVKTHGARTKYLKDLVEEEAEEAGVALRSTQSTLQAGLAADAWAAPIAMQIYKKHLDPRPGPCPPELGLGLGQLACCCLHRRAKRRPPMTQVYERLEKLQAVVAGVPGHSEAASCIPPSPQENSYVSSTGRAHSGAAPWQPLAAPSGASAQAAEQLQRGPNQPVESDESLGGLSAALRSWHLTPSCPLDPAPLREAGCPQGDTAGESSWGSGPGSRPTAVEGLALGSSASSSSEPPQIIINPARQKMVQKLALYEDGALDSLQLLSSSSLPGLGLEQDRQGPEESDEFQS

For `c1cc2cn[nH]c2cc1-c1cnc2ccc(NC3CCOCC3)nn12` [Compound 5], the half-inhibitory concentration (IC50) (as a rule, the point on the concentration scale where inhibition reaches its midpoint) in data set [1] amounted to 0.3 µM; in [3], 0.03 µM; in [4], 3.4 ± 0.5 µM; in data set [5], 3.8 ± 0.5 µM; in data set [6], 4.8 ± 1.1 µM; in data set [7], 0.829 µM. The IC50 was found to be 0.099 µM in data set [8] and 5.98 µM in data set [9]. The “Bcl2 and Mcl1 protein levels in cytoplasmic fractions” value in data set [2] is “dramatic reduction”. The “cleaved caspase 3 and cleaved PARP (apoptosis)” value in [2] was “appearances of cleaved caspase 3 and cleaved PARP”. Further, the inhibition at 50 µM in data set [10] is 38%.

Take `CCCN(c1ccc2ncc(-c3ccc4cn[nH]c4c3)n2n1)C1CCOCC1` [Compound 27]: the IC50 in [1] was greater than 30 µM; in [3], 13 µM; in data set [15] (split luciferase HuR dimerization assay, compounds administered for 6 hours, read-out: HuR IC50) it was greater than 50 µM; in data set [7], greater than 30 µM; in [8], greater than 30 µM; in data set [9] it was greater than 30 µM. For the same molecule, the values for the half-life in [11] and in [12] were 9.8 min and greater than 300 min, respectively. Besides, the logD (in general, lipophilicity at a set pH, counting ionised and neutral species) in data set [13] turned out to be 0.4. Besides, the solubility in [14] came to 65.3 µM (≈ 24.6 µg/mL). For the same molecule, the “HuR inhibition activity (in words)” value in data set [15] is “inactive”.
